# Columns and labels:
# [1] = system: citric acid/ATP-stimulated cough model; assay: Cough efficacy assay of ATP/citric acid in guinea pigs; format: in vivo
# Description: (§1) Before enrollment, the animals were acclimatized for 3-7 days. Once their body weight reached the standard (300-400 g), they were numbered and randomly grouped. 0.25-24 h before the start of the cough assessment, the compound or excipient was administered to the guinea pigs via intranasal instillation. The dose range for the administration of the test substance was 0.17-1.5 mg/kg. During the cough assessment, after the animals were acclimated in a whole-body plethysmography box, they were given ATP nebulization, and after a few minutes, they were given citric acid nebulization. The number of coughs and the cough latency of the animals were recorded within 15 min from the start of the citric acid nebulization. The one-way ANOVA method was used to analyze and compare the data of the groups. Statistical analysis results with p<0.05 were considered to indicate significant differences. Pairwise comparisons were performed using the t-test method to assess differences.
# [2] = system: citric acid/histamine-stimulated cough model; assay: Cough efficacy assay of histamine/citric acid in guinea pigs; format: in vivo
# Description: as §1, with “given histamine” for “given ATP”, “nebulization, followed by” for “nebulization, and after a few minutes, they were given”, “within 22” for “within 15”, “the histamine nebulization until the end of the observation period. For the statistics of experimental data, the” for “the citric acid nebulization. The”
# [3] = Pharmacokinetic assay in mice; format: in vivo, male ICR mice
# Description: Pharmacokinetic assay in mice was performed, wherein the mice used were male ICR mice weighing 20-25 g and fasted overnight. 3 mice were taken and given the compound by oral intragastric administration at 10 mg/kg, and blood was collected before administration and at 15 min, 30 min, 1 h, 2 h, 4 h, 8 h, and 24 h after administration. The blood samples were centrifuged at 6800 g at 2-8° C. for 6 min, and plasma was collected and stored at −80° C. […] The mixture was vortexed for 1 min and then centrifuged at 13000 rpm at 4° C. for 10 min. The supernatant was taken, and 3 times its amount of water was added for mixing. A proper amount of the resulting mixture was taken for LC-MS/MS analysis. The major pharmacokinetic parameters were analyzed using a non-compartmental model in the WinNonlin 7.0 software.
# taste of SD rats = assay: Taste assay in rats (water vs. aqueous quinine intake); format: in vivo; details: 30 mg/kg, i.p., 0.3 mM aqueous quinine, 15 min intake half an hour after administration
# Description: After 3 days of overnight water-deprivation training, SD rats were subjected to administration with the compound. Half an hour after administration, each animal was given one bottle of water and one bottle of 0.3 mM aqueous quinine solution. The water bottles were removed after 15 min, and the intake of water and the intake of 0.3 mM aqueous quinine solution by the rats were measured separately. The effect of the compound on the taste of SD rats was assessed based on the difference between the water intake and the aqueous quinine solution intake (FIG. 41).
# [4] = Competitive suspension tests of free base crystalline forms A/B; format: physicochemical; details: room temperature and 50° C.
# Description: In order to confirm the thermodynamic transformation relationship between the anhydrous free base crystalline forms A and B under different temperature conditions, competitive suspension tests in n-heptane and toluene at room temperature and 50° C. were set up.
# [5] = Solid state stability (XRPD and HPLC); format: physicochemical
# Description: In the test, the purity, dynamic solubility and stability were tested using an Agilent 1260 high-performance liquid chromatograph, the molar ratio of salt-forming ions was tested using ion chromatography, and the analytical conditions are shown in Tables A-4 and A-5 below. [table]
# [6] = Hygroscopicity by dynamic vapor sorption (DVS); format: physicochemical
# Description: Dynamic vapor sorption (DVS) curves were acquired on a DVS IntrInsic from Surface Measurement Systems (SMS). The relative humidity at 25° C. was corrected with the deliquescence points of LiCl, Mg(NO3)2, and KCl.
# Starting at 0% RH, the test acquired the percentage changes in mass of the samples when the humidity changed (0% RH to 95% RH to 0% RH) at a constant temperature of 25° C.
# [7] = Dynamic solubility experiment at 37° C.; format: physicochemical
# Description: In the test, the purity, dynamic solubility and stability were tested using an Agilent 1260 high-performance liquid chromatograph, the molar ratio of salt-forming ions was tested using ion chromatography, and the analytical conditions are shown in Tables A-4 and A-5 below.
# Solids at a feeding concentration of 10 mg/mL (calculated based on free base) were rotationally mixed with corresponding vehicles at 37° C. […] After sampling at each time point, the samples were centrifuged (at 10000 rpm) and filtered (through a 0.45 μm PTFE filter head). The HPLC concentrations and pH values of the filtrates were determined.
# 100.2 mg of NaCl and 50.3 mg of Triton X-100 were weighed into a 50 mL volumetric flask and then completely dissolved by addition of purified water. 816 μL of 1 M hydrochloric acid was added, and the pH was adjusted to 1.8 with 1 M hydrochloric acid or 1 M NaOH solution. The mixed solution was brought to the volume by addition of purified water.
# 170.5 mg of anhydrous NaH2PO4, 22.2 mg of NaOH, and 310.9 mg of NaCl were weighed into a 50 mL volumetric flask and then completely dissolved by addition of purified water. The pH was adjusted to 6.5 with 1 M hydrochloric acid or 1 M NaOH solution. The mixed solution was brought to the volume by addition of purified water. Subsequently, 55.1 mg of SIF powder was weighed into a 25 mL volumetric flask and completely dissolved with the above solution, and the mixed solution was brought to the volume.
# 0.21 mL of glacial acetic acid, 101.6 mg of NaOH, and 295.4 mg of NaCl were added into a 25 mL volumetric flask and then completely dissolved by addition of about 20 mL of purified water. The pH was adjusted to 5.0 with 1 M hydrochloric acid or 1 M NaOH solution. The mixed solution was brought to the volume by addition of purified water, and then 280.8 mg of SIF powder was weighed into the flask and completely dissolved.
# [8] = ATP/citric acid nebulization, intranasal instillation
# [9] = citric acid/ATP-stimulated cough model
# [10] = citric acid/histamine-stimulated cough model
# [11] = histamine/citric acid nebulization, intranasal instillation
# [12] = male, ICR, mouse, plasma, mice, oral intragastric administration, 10 mg/kg
# [13] = 25° C./60% RH/uncovered, 1 month
# [14] = 25° C./60% RH/uncovered, 1 week
# [15] = 40° C./75% RH/uncovered, 1 month
# [16] = 40° C./75% RH/uncovered, 1 week
structure (smiles),measurement,setting,value
"Cc1cnc(-c2cc(O[C@@H](C)[C@@H](C)O)cc(C(=O)N[C@H](C)c3cnc(C(F)(F)F)nc3)c2F)s1 [Compound of formula I, 2-fluoro-5-(((2S,3R)-3-hydroxybutan-2-yl)oxy)-3-(5-methylthiazol-2-yl)-N—((R)-1-(2-(trifluoromethyl)pyrimidin-5-yl)ethyl)benzamide]",Cough inhibition rate vs. vehicle (%),[1]; [8],68.2%
same,Mean number of coughs within 15 min,[1]; [8],6.3
same,cough latency,[1]; [9],prolonged the cough latency
same,number of coughs compared to control compound 1,[1]; [9],significantly reduced the number of coughs
same,cough latency,[2]; [10],prolonged the cough latency
same,number of coughs compared to control compound 1,[2]; [10],significantly reduced the number of coughs
same,Cough inhibition rate vs. vehicle (%),[2]; [11],66.5%
same,Mean number of coughs within 15 min,[2]; [11],8.9
same,AUC(0-t),[3]; [12],15000 ng·h/mL
same,Cmax,[3]; [12],3380 ng/mL
same,Tmax,[3]; [12],0.5 h
same,half-life,"[3]; male, ICR, mouse, plasma, mice, oral intragastric administration, 10 mg/kg, read-out: T½ (converted)",2.89 h
same,pharmacokinetic properties compared to the control compounds 1 and 2,[3]; mouse model,certain improvements in their pharmacokinetic properties
same,Water/aqueous quinine solution intake ratio,taste of SD rats,29.4
"Cc1cnc(-c2cc(O[C@@H](C)[C@@H](C)O)cc(C(=O)N[C@H](C)c3cnc(C(F)(F)F)nc3)c2F)s1 [Free base crystalline form A, 2-fluoro-5-(((2S,3R)-3-hydroxybutan-2-yl)oxy)-3-(5-methylthiazol-2-yl)-N—((R)-1-(2-(trifluoromethyl)pyrimidin-5-yl)ethyl)benzamide]",thermodynamic stability of the crystalline form,[4],thermodynamically stable crystalline form
same,HPLC Purity (area %),[5]; [13],99.33 area %
same,HPLC purity Relative to starting (%),[5]; [13],99.96%
same,HPLC Purity (area %),[5]; [14],99.38 area %
same,HPLC purity Relative to starting (%),[5]; [14],100.01%
same,HPLC Purity (area %),[5]; [15],99.43 area %
same,HPLC purity Relative to starting (%),[5]; [15],100.06%
same,HPLC Purity (area %),[5]; [16],99.51 area %
same,HPLC purity Relative to starting (%),[5]; [16],100.14%
same,change of HPLC purity after placement under the corresponding conditions,"[5]; 60° C. sealed 1 day, 25° C./60% RH and 40° C./75% RH uncovered 1 week/1 month",no significant change
same,HPLC Purity (area %),"[5]; 60° C./sealed, 1 day",99.44 area %
same,HPLC purity Relative to starting (%),"[5]; 60° C./sealed, 1 day",100.07%
same,HPLC Purity (area %),[5]; Starting,99.37 area %
same,crystalline form after DVS test,"[6]; 0% RH to 95% RH to 0% RH, 25° C.",remained unchanged
same,vapor sorption,[6]; 25° C./80% RH,about 0.91%
same,hygroscopicity,"[6]; DVS, 25° C./80% RH",slight hygroscopicity
same,solubility at 4 h,"[7]; FaSSIF, 37 °C, pH 6.5, fassif, thermodynamic from solid, FaSSIF, 4 h, read-out: S: solubility",8 µg/mL
same,Crystalline form change,"[7]; FaSSIF, 1 h",No
same,S: solubility,"[7]; FaSSIF, 1 h",10 µg/mL
same,pH of filtrate,"[7]; FaSSIF, 1 h",6.5
same,Crystalline form change,"[7]; FaSSIF, 4 h",No
same,pH of filtrate,"[7]; FaSSIF, 4 h",6.5
same,Crystalline form change,"[7]; FaSSIF, 24 h",No
same,S: solubility,"[7]; FaSSIF, 24 h",9 µg/mL
same,pH of filtrate,"[7]; FaSSIF, 24 h",6.5
same,solubility at 24 h,"[7]; FeSSIF, 37 °C, pH 5, fessif, thermodynamic from solid, FeSSIF, 24 h, read-out: S: solubility",25 µg/mL
same,Crystalline form change,"[7]; FeSSIF, 1 h",No
same,S: solubility,"[7]; FeSSIF, 1 h",23 µg/mL
same,pH of filtrate,"[7]; FeSSIF, 1 h",5.0
same,Crystalline form change,"[7]; FeSSIF, 4 h",No
same,S: solubility,"[7]; FeSSIF, 4 h",23 µg/mL
same,pH of filtrate,"[7]; FeSSIF, 4 h",5.0
same,Crystalline form change,"[7]; FeSSIF, 24 h",No
same,pH of filtrate,"[7]; FeSSIF, 24 h",5.0
same,Crystalline form change,"[7]; H2O, 1 h",No
same,S: solubility,"[7]; H2O, 1 h",3 µg/mL
same,pH of filtrate,"[7]; H2O, 1 h",8.8
same,Crystalline form change,"[7]; H2O, 4 h",No
same,S: solubility,"[7]; H2O, 4 h",3 µg/mL
same,pH of filtrate,"[7]; H2O, 4 h",8.9
same,Crystalline form change,"[7]; H2O, 24 h",No
same,S: solubility,"[7]; H2O, 24 h",3 µg/mL
same,pH of filtrate,"[7]; H2O, 24 h",9.0
same,crystalline form changes in the dynamic solubility tests,"[7]; H2O, SGF, FaSSIF, FeSSIF",did not undergo any crystalline form changes
same,Crystalline form change,"[7]; SGF, 1 h",No
same,S: solubility,"[7]; SGF, 1 h",13 µg/mL
same,pH of filtrate,"[7]; SGF, 1 h",1.8
same,Crystalline form change,"[7]; SGF, 4 h",No
same,S: solubility,"[7]; SGF, 4 h",13 µg/mL
same,pH of filtrate,"[7]; SGF, 4 h",1.8
same,Crystalline form change,"[7]; SGF, 24 h",No
same,S: solubility,"[7]; SGF, 24 h",12 µg/mL
same,pH of filtrate,"[7]; SGF, 24 h",1.8

# From US20250214986A1, “P2X3 INHIBITOR COMPOUND, SALT THEREOF, POLYMORPH THEREOF AND USE THEREOF” (HUMANWELL HEATHCARE (GROUP) CO., LTD., priority 2022, published 2025)
